In ChEMBL document CHEMBL5038569, “Targeting RECQL5 Functions, by a Small Molecule, Selectively Kills Breast Cancer in Vitro and in Vivo” (J Med Chem, 2021):

How the values were obtained:
MCF7 = experiment: Induction of apoptosis in RECQL5 knock out human MCF7 cells assessed as increase in sub-G1 cell population measured after 72 hrs by propidium iodide/RNase A staining based flow cytometric analysis; assay type: functional; conditions: dose 2.5-20 µM
[1] = Toxicity in nude mouse xenografted with human MCF7 cells assessed as morphological changes in lungs at 50 mg/kg, po administered via oral gavage and measured after 30 days; assay type: organism-based; conditions: in vivo, 720 h, time 30 day

O=C(Nc1cc(C(F)(F)F)cc(C(F)(F)F)c1)N[C@@H](c1ccccc1)c1nnc(SCc2ccccc2)o1
Activity (MCF7): Dose-Dependent Effect
Activity [1]: Non-Toxic
